From patent publication US4032656A, “Aromatic prostaglandin derivatives” (SmithKline Corporation, priority 1975, dated 1977) come the findings set out here.

The test system of one test is PGE2 diarrhea in mice. As to the kind of experiment: Antagonism of diarrhea induced by prostaglandin E2 (PGE2). The format is in vivo. To be noted: 20 mg./kg., subcutaneously 15 minutes prior to intraperitoneal PGE2, examined every 15 minutes for one hour. As to the method: The antagonism of diarrhea induced by prostaglandin E2 (PGE2) was determined by employing the modified standard animal pharmacological test procedure as reported in Intra Science Chem. Rept, 6:1-9, 1972 and Annals of the New York Academy of Sciences, 180:386-95, 1971. Briefly the test comprises administering the test compounds subcutaneously 15 minutes prior to an intraperitoneal injection of PGE2. Each animal is examined for diarrhea (which results after the administration of PGE2) every 15 minutes for one hour post-drug. Polyphloretin phosphate and 7 oxa-13-prostynoic acid, both well known antagonists of prostaglandin induced diarrhea, were employed as reference compounds.

For another test, the system named is prostaglandin synthesis. Description: Inhibition of prostaglandin synthesis (arachidonic acid-dependent formation of adrenochrome from L-epinephrine during prostaglandin biosynthesis; Takeguchi and Sih). In kind it is biochemical. The settings on record: for IC50: read-out: ID50 (the source's name). From the text:
The prostaglandin synthesis inhibition method as employed is reported by Takeguchi and Sih, Prostaglandins, 2, 169, 1972. The principle entails the arachidonic acid-dependent formation of adrenochrome from L-epinephrine during prostaglandin biosynthesis. Indomethacin, phenylbutazone and aspirin were used as reference compounds.

The mark [1] stands for this setting: prostaglandin synthesis inhibition.

In the case of `CCCCCC(O)/C=C/c1ccccc1CCCCCCC(=O)OC` (stereo not drawn) [1-(6-carbomethoxyhexyl)-2-(3-hydroxy-trans-1-octenyl)benzene], in the test on PGE2 diarrhea in mice, the “inhibition of PGE2 diarrhea in mice” value is listed as 53%.

For the molecule `CCCCCC(O)/C=C/c1ccccc1CCCCCCC(=O)O` (stereo not drawn) [1-(6-carboxyhexyl)-2-(3-hydroxy-trans-1-octenyl)benzene], the “inhibition of prostaglandin synthesis” value in the test with prostaglandin synthesis (at 1000 μM) came out at 100%. For the same molecule, the IC50 in the test with prostaglandin synthesis (setting [1]) was 410 µM. Moreover, the “potency as inhibitor relative to aspirin” value in the test with prostaglandin synthesis (ratio of ID50's, prostaglandin synthesis inhibition, vs aspirin) is listed as “nine times as potent”. In the test with prostaglandin synthesis (ratio of ID50's, prostaglandin synthesis inhibition, vs phenylbutazone), the “potency as inhibitor relative to phenylbutazone” value is listed as “twice as potent”. Turning to `CC(=O)Oc1ccccc1C(=O)O` [aspirin, reference compound], the IC50 in the test on prostaglandin synthesis (setting [1]) is 3700 µM. For `CCCCC1C(=O)N(c2ccccc2)N(c2ccccc2)C1=O` [phenylbutazone, reference compound], the IC50 with prostaglandin synthesis (setting [1]) was found to be 875 µM.

Consider “polyphloretin phosphate [reference compound]”, for which the “inhibition of PGE2 diarrhea in mice” value in the test with PGE2 diarrhea in mice turned out to be 36%.
